Laboratory results reported in PMC11467779, “New anti-ovarian cancer quinolone derivatives acting by modulating microRNA processing machinery” (RSC Medicinal Chemistry, 2024).

Legend:
OVCA433 = assay: Antiproliferative effect against OVCA433 (GI50); assay type: cell-based; details: Homo sapiens, 72 hours of treatment, cell count
Description: (§1) SKOV-3, A2780 and A2780 CIS were cultured and maintained, as previously described,[50] at 37 °C in RPMI 1640 medium (Euroclone) supplemented with 10% fetal bovine serum (FBS; Euroclone), L-glutamine and penicillin/streptomycin (SIGMA-ALDRICH). OVCA433, HEK-293T, HeLa, HCCLM3, SK-Hep-1, MCF-7, A549 and HCT-116 cells were maintained in DMEM medium (Euroclone) containing 10% FBS (Euroclone), L-glutamine and penicillin/streptomycin (SIGMA-ALDRICH). Wi-38 cells were cultured in DMEM medium (Euroclone) supplemented with 10% FBS (Euroclone), L-glutamine and penicillin/streptomycin (SIGMA-ALDRICH), and 1% non-essential amino acids (NEAA; Euroclone). The cultures were maintained in a constant temperature incubator at 37 °C with 5% CO2. […] Once cell adhesion had been promoted, the compounds were added to the culture medium. After 72 hours of treatment, the cells were counted, and the data analyzed by linear regression. Each experiment was carried out three times in triplicate and three separate cell counts were made for each sample. […] Afterwards, the concentration range was narrowed to the relative value obtained in the first evaluation in order to obtain an accurate value.

TRBP = target: T1, TRBP (Homo sapiens, UniProt Q15633); assay: Surface plasmon resonance (SPR) assay on TRBP; assay type: binding; details: versus enoxacin
T1 sequence (Q15633 1-366): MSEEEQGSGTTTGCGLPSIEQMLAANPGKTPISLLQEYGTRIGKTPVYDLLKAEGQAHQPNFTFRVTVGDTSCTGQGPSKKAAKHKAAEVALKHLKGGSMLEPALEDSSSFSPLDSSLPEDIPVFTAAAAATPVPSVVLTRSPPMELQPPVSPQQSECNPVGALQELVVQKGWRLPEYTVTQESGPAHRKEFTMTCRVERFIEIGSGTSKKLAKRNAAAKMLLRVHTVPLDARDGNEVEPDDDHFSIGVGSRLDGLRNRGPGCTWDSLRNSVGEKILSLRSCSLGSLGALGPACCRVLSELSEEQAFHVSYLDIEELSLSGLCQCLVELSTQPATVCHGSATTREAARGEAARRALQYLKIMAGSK
Description: Following the manufacturer's instructions, the BIAcore Sensor Chip (CM5) underwent initial activation using a mixture of NHS and EDC. Subsequently, recombinant human TRBP proteins at a concentration of 20 μg mL^−1 (in 10 mM sodium acetate, pH 4.0) were injected over the CM5 chip. After reaching a coupling level of 12 000 RU, a 1 M ethanolamine hydrochloride was injected to block the chip, preventing nonspecific binding. All the compounds were diluted in HBS-EP buffer (10 mM HEPES, pH 7.4, 3 mM EDTA, 150 mM NaCl, and 0.005% surfactant P-20) with 1% DMSO. Samples were injected at a rate of 10 μL min^−1 for 120 seconds, followed by a dissociation phase of 90 seconds. After each cycle, a 50% DMSO solution was used to regenerate the chip surface and restore the sensorgram baseline. Binding analysis was performed using BIA evaluation version 3.2 software, determining the […] (KD).

distinct OC cell lines = assay: Anti-OC activity against distinct cell lines (GI50 range); assay type: cell-based; details: Homo sapiens; range over the OC cell lines tested
Description: Once cell adhesion had been promoted, the compounds were added to the culture medium. After 72 hours of treatment, the cells were counted, and the data analyzed by linear regression. Each experiment was carried out three times in triplicate and three separate cell counts were made for each sample.
Afterwards, the concentration range was narrowed to the relative value obtained in the first evaluation in order to obtain an accurate value.

KO TRBP HCCLM3 cells = assay: Antiproliferative effect on KO TRBP HCCLM3 cells (CCK-8); assay type: cell-based, human; details: 30 μM, 48 hours
Description: (§2) HCCLM3 and SK-Hep-1 cells were seeded into 96-well plates at a density of 10 000 cells per well and allowed to adhere overnight. Subsequently, the cells were treated with the following substances: 0.1% DMSO as the negative control, various concentrations of the test compounds, and 125 μM enoxacin as the positive control. After 48 h of incubation, the original culture medium was removed, and the cells were washed twice with PBS. Then, 100 μL of DMEM culture medium containing 10% CCK-8 (Bimake, USA) was added to each well. The plates were incubated for 30 minutes at 37 °C. To determine the […], measurements were taken at a wavelength of 450 nm using a Varioskan from Thermo Fisher Scientific.

WT SK-Hep-1 cells = assay: Antiproliferative effect on WT SK-Hep-1 cells (CCK-8); assay type: cell-based, human; details: 48 hours
Description: as §2

KO TRBP SK-Hep-1 cells = assay: Antiproliferative effect on KO TRBP SK-Hep-1 cells (CCK-8); assay type: cell-based, human; details: 48 hours
Description: as §2

miR-21 = miR-21 expression in HeLa cells (qRT-PCR); assay type: cell-based, human; details: 50 μM, 6 hours
Description: Total RNA was extracted using the Direct-zol RNA MiniPrep kit (Zymo Research) with on-column DNase treatment, according to the manufacturer's instructions. Reverse transcription was carried out with SuperScript VILO cDNA Synthesis Kit (Life Technologies) and the cDNA samples were analyzed by qRT-PCR using PowerUp SYBR Green Master Mix (Thermo Fisher Scientific). For miR-21 expression analysis total RNA was retrotranscribed using miRCURY® LNA® RT Kit (Qiagen) and the cDNA was analyzed by using miRCURY® LNA® miRNA PCR Assay (Qiagen). The oligonucleotides used are the following: GAPDH_FW […]; GAPDH_REV […]; ATP5O_FW […]; ATP5O_REV […]; hsa-miR-21-5p miRCURY LNA miRNA PCR Assay (YP00204230); U6 snRNA (v2) miRCURY LNA miRNA PCR Assay (YP02119464).

SKOV-3 cell line = assay: Antiproliferative effect against the SKOV-3 cell line (GI50, cell count); assay type: cell-based, human
Description: as §1

miR-21-5p biogenesis = assay: miR-21-5p luciferase reporter (psi-R21 / psi-CTRL) in HeLa cells; assay type: cell-based, human
Description: HeLa cells were transfected with 10 ng of psi-R21 or psi-CTRL using Lipofectamine™ 2000 (Thermo Fisher Scientific) and after 48 hours were treated with either enoxacin or 33 at 20 μM and 50 μM. After 6 hours Renilla luciferase (RLuc) and firefly luciferase (FLuc) activities were measured using the Dual-Luciferase® Reporter Assay System (Promega), following the manufacturer's instructions, and GloMax® Discover Microplate Reader (Promega).
The binding site for miR-21 was cloned into psiCHECK™-2 Vector (Promega), downstream the Renilla cDNA, by inverted PCR using the following oligonucleotides: 21MRE_FW […]; 21MRE_REV […]. The resulting construct was named psi-R21.

## O=C(O)c1cn(C2CC2)c2cc(N3CCc4ccccc4C3)c(F)cc2c1=O [Compound 33, 1-Cyclopropyl-7-(3,4-dihydroisoquinolin-2(1H)-yl)-6-fluoro-4-oxo-1,4-dihydroquinoline-3-carboxylic acid]
OVCA433
  GI50: 31 ± 6.75 µM
TRBP
  binding affinity for TRBP, fold stronger than enoxacin: approximately 40 fold
Distinct OC cell lines
  GI50: 13.5 to 31 µM
KO TRBP HCCLM3 cells
  antiproliferative effect on KO TRBP HCCLM3 cells: no antiproliferative effect
WT SK-Hep-1 cells; 30 μM
  antiproliferative effect on WT TRBP SK-Hep-1 cells: less evident
WT SK-Hep-1 cells; 50 μM
  viability of WT SK-Hep-1 cells: significantly reduced the viability
KO TRBP SK-Hep-1 cells; 30 μM
  antiproliferative effect on KO TRBP SK-Hep-1 cells: no antiproliferative effect
KO TRBP SK-Hep-1 cells; 50 μM
  viability of KO TRBP SK-Hep-1 cells: not affecting
miR-21
  miR-21 level in HeLa cells: Upregulation of miR-21
SKOV-3 cell line; Homo sapiens, SK-OV-3, 72 h, 50% cell growth inhibition, 72 hours of treatment, cell count, ND = activity not dose dependent
  GI50: 13.5 ± 1.45 µM
SKOV-3 cell line; versus enoxacin
  GI50 SKOV-3, fold lower than enoxacin: about 9 fold
miR-21-5p biogenesis; 50 μM, 6 hours
  miRNA enhancing effect: Renilla luciferase activity, psi-R21 construct: decrease in Renilla luciferase activity
miR-21-5p biogenesis; construct lacking the miR-21-5p binding site
  Renilla luciferase activity, control construct psi-CTRL: no significant variation
